Paper PMC4032265 (PLoS ONE, 2014)
Where two headings read alike, the source gives them in different places.

Assays:
α2B adrenergic receptor = biological target: T1, α2B adrenergic receptor (Homo sapiens, UniProt P18089); experiment: PDSP radioligand binding, α2B; conditions: for Ki: full concentration-response curves, n = 3-6 unless noted; for inhibition at 10 µM: read-out: % inhibition at 10 µM
T1 sequence (P18089 1-450): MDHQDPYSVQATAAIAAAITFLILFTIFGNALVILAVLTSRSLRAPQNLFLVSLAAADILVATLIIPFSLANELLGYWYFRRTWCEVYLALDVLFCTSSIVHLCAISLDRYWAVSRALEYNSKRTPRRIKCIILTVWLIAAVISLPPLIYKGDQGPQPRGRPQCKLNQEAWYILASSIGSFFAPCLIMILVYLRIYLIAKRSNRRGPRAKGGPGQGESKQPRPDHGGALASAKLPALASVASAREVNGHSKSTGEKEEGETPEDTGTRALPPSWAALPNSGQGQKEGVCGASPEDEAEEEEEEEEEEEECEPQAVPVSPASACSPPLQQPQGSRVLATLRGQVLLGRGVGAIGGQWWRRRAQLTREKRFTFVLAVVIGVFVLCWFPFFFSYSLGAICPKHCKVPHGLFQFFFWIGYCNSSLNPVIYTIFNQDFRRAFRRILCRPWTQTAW

[1] = biological target: T2, 5HT1A serotonergic receptor (Homo sapiens, UniProt P08908); experiment: PDSP radioligand binding, 5HT1A; conditions: for inhibition at 10 µM: read-out: % inhibition at 10 µM
T2 sequence (P08908 1-422): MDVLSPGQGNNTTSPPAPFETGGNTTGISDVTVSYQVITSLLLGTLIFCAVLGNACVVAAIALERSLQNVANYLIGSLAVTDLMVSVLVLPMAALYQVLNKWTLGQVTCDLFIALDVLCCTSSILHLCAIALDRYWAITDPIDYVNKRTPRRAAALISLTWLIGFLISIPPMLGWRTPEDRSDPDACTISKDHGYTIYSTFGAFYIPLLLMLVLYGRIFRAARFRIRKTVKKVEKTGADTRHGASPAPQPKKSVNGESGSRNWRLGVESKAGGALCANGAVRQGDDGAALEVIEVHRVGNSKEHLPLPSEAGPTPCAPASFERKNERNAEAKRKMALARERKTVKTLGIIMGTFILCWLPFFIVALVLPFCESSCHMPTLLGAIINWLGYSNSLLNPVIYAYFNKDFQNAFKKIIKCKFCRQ

[2] = biological target: 5HT2B serotonergic receptor (Homo sapiens, UniProt P41595); experiment: PDSP radioligand binding, 5HT2B; conditions: for Ki: full concentration-response curves, n = 3-6 unless noted; for inhibition at 10 µM: read-out: % inhibition at 10 µM
Sequence of 5HT2B serotonergic receptor (P41595 whole entry): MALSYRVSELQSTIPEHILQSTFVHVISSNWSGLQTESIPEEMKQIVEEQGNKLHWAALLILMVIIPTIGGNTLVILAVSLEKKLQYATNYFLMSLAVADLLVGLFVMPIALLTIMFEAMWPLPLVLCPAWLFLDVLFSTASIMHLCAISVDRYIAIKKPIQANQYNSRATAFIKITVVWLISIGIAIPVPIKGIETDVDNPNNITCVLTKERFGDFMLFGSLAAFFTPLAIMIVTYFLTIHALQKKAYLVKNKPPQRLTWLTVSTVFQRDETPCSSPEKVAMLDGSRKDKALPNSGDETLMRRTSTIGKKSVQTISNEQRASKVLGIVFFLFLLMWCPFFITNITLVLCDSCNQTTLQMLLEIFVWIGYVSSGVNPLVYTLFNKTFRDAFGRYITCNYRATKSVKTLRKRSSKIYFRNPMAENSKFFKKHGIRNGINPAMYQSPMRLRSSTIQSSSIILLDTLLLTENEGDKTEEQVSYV

[3] = biological target: 5HT7 serotonergic receptor (Homo sapiens, UniProt P34969); experiment: PDSP radioligand binding, 5HT7; conditions: for inhibition at 10 µM: read-out: % inhibition at 10 µM; for Ki: full curve, n = 1
Sequence of 5HT7 serotonergic receptor (P34969 whole entry): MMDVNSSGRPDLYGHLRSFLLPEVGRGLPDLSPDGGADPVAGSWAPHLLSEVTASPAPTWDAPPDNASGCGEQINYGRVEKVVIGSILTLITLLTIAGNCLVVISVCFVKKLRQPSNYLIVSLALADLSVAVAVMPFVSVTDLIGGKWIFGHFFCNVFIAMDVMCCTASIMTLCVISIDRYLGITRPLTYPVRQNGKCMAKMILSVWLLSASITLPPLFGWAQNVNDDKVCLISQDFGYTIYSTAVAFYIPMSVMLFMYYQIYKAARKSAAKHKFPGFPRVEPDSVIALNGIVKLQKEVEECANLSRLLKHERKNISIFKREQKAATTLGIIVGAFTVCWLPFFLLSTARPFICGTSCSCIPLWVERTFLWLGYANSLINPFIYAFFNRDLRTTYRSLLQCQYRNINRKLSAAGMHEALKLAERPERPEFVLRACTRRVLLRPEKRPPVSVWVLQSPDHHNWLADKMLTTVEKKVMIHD

σ1 receptor = σ1 receptor (Cavia porcellus, UniProt Q60492); experiment: PDSP radioligand binding, σ1; conditions: read-out: % inhibition at 10 µM
Sequence of σ1 receptor (Q60492 whole entry): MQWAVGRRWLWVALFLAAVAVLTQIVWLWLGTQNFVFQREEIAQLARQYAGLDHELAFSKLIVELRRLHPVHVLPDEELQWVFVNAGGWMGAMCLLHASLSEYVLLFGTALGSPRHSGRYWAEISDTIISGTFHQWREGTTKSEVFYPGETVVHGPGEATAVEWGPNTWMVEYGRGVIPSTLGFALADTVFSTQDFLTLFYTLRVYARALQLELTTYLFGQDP

[4] = biological target: peripheral benzodiazepine receptor (PBR) (Rattus norvegicus, UniProt P16257); experiment: PDSP radioligand binding, PBR; conditions: for inhibition at 10 µM: read-out: % inhibition at 10 µM; for Ki: full curves, n = 2
α1A adrenergic receptor = biological target: T3, α1A adrenergic receptor (Homo sapiens, UniProt P35348); experiment: PDSP radioligand binding, α1A; conditions: read-out: % inhibition at 10 µM
T3 sequence (P35348 1-466): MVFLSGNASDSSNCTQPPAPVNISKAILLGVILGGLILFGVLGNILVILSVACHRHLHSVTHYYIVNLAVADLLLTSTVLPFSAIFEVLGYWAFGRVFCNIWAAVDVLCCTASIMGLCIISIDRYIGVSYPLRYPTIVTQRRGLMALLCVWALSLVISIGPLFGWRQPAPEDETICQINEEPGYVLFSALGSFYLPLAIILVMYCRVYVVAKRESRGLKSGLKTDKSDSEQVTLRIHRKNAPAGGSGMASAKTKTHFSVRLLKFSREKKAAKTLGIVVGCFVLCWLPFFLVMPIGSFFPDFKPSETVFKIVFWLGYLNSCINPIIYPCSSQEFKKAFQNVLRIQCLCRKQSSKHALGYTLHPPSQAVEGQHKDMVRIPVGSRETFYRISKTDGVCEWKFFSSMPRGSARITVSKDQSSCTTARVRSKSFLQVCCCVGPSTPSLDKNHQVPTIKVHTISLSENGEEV

β1 adrenergic receptor = β1 adrenergic receptor (Homo sapiens, UniProt P08588); experiment: PDSP radioligand binding, β1; conditions: read-out: % inhibition at 10 µM
Sequence of β1 adrenergic receptor (P08588 whole entry, species assumed): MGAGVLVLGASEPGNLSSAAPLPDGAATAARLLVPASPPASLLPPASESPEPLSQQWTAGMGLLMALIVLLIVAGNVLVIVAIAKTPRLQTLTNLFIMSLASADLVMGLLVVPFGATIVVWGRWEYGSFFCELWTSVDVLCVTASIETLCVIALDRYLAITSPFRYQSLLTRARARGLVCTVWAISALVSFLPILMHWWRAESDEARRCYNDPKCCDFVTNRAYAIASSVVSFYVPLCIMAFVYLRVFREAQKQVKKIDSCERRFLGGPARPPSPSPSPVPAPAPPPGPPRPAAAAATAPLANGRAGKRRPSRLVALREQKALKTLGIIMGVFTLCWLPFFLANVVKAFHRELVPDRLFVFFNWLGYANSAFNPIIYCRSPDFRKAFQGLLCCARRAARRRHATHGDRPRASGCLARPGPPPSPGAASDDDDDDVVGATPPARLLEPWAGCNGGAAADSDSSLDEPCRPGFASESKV

[5] = biological target: T4, M1 muscarinic acetylcholine receptor (Homo sapiens, UniProt P11229); experiment: PDSP radioligand binding, M1; conditions: read-out: % inhibition at 10 µM
T4 sequence (P11229 1-460): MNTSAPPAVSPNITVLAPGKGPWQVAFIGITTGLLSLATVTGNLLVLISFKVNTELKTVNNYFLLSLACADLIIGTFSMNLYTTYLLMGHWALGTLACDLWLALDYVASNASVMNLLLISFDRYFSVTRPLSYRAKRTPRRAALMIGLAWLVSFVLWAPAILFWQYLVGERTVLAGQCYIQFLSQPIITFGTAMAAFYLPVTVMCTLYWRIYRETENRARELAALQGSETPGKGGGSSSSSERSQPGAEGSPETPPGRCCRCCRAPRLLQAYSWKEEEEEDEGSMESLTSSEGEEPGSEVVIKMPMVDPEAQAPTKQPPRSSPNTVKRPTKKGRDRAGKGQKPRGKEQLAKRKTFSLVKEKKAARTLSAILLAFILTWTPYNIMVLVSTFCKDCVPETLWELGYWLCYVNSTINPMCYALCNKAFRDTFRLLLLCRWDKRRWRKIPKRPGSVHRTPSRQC

[6] = biological target: T5, M2 muscarinic acetylcholine receptor (Homo sapiens, UniProt P08172); experiment: PDSP radioligand binding, M2; conditions: read-out: % inhibition at 10 µM
T5 sequence (P08172 1-466): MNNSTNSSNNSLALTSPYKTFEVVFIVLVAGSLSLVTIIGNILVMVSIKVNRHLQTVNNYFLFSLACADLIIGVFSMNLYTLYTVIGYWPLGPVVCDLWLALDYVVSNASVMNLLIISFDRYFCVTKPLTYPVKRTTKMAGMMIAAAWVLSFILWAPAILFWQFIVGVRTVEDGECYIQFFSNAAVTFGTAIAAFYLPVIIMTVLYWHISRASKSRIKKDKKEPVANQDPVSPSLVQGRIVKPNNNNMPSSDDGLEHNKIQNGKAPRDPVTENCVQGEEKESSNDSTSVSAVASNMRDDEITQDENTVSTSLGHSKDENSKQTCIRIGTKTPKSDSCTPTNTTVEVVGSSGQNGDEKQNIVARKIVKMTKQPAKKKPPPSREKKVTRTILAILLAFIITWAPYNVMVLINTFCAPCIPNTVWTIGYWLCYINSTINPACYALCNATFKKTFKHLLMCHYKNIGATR

D5 dopaminergic receptor = D5 dopaminergic receptor (Homo sapiens, UniProt P21918); experiment: PDSP radioligand binding, D5; conditions: read-out: % inhibition at 10 µM
Sequence of D5 dopaminergic receptor (P21918 whole entry): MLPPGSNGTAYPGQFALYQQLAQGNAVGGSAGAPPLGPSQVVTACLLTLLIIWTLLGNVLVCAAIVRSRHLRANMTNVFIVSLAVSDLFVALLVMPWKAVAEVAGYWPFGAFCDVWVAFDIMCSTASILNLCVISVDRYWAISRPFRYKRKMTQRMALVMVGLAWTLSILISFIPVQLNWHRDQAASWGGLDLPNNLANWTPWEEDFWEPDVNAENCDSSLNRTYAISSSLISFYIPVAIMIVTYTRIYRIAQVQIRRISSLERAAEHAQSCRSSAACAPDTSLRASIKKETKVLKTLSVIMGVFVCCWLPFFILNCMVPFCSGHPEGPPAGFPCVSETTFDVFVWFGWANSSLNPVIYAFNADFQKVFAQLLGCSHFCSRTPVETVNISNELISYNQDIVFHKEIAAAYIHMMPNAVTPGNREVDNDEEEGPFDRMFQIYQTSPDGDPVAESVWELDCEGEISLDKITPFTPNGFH

[7] = biological target: 5HT2A serotonergic receptor (Homo sapiens, UniProt P28223); experiment: PDSP radioligand binding, 5HT2A; conditions: read-out: % inhibition at 10 µM
Sequence of 5HT2A serotonergic receptor (P28223 whole entry): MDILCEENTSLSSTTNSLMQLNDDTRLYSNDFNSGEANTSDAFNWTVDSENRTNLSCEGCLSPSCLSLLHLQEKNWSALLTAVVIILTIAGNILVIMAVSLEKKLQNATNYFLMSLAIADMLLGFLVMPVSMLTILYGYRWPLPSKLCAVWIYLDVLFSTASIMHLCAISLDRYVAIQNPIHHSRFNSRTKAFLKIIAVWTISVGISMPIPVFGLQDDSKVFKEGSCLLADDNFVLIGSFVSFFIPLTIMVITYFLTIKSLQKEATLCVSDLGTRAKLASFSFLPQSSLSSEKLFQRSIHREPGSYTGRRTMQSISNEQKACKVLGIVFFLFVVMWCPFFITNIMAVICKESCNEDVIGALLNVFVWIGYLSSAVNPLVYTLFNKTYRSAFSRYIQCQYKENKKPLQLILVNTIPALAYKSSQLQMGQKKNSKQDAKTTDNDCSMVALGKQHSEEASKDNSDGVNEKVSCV

GABAA receptor = experiment: PDSP radioligand binding, GABAA; conditions: single concentration 10 µM

| Structure (SMILES) | Ki (α2B adrenergic receptor) [µM] | Ki [2] [µM] | inhibition at 10 µM ([7]; single concentration 10 µM) [%] | % inhibition at 10 µM (GABAA receptor) [%] | inhibition at 10 µM (α2B adrenergic receptor; single concentration 10 µM) [%] | inhibition at 10 µM ([1]; single concentration 10 µM) [%] | inhibition at 10 µM ([2]; single concentration 10 µM) [%] | inhibition at 10 µM ([3]; single concentration 10 µM) [%] | inhibition at 10 µM (σ1 receptor; single concentration 10 µM) [%] | Ki [4] [µM] | inhibition at 10 µM ([4]; single concentration 10 µM) [%] | inhibition at 10 µM (α1A adrenergic receptor; single concentration 10 µM) [%] | inhibition at 10 µM (β1 adrenergic receptor; single concentration 10 µM) [%] | inhibition at 10 µM ([5]; single concentration 10 µM) [%] | inhibition at 10 µM ([6]; single concentration 10 µM) [%] | inhibition at 10 µM (D5 dopaminergic receptor; single concentration 10 µM) [%] | further results |
| --- | --- | --- | --- | --- | --- | --- | --- | --- | --- | --- | --- | --- | --- | --- | --- | --- | --- |
| CNC(=O)[C@@]12C[C@@H]1[C@@H](n1cnc3c(NCc4cccc(Cl)c4)nc(C#Cc4ccc(F)c(F)c4)nc31)[C@H](O)[C@@H]2O [Compound 1] | 2.86 ± 1.11 | 2.58 ± 0.22 | 5 | 0 |  |  |  |  |  |  |  |  |  |  |  |  | inhibition at 10 µM (α2B adrenergic receptor): 49%; Ki [1]: 7.62 µM; inhibition at 10 µM [1]: 26%; inhibition at 10 µM [2]: 34%; inhibition at 10 µM [3]: 5%; inhibition at 10 µM (σ1 receptor): 0%; inhibition at 10 µM [4]: 71%; inhibition at 10 µM (α1A adrenergic receptor): 10%; inhibition at 10 µM (β1 adrenergic receptor): 0%; inhibition at 10 µM [5]: 9%; inhibition at 10 µM [6]: 22%; inhibition at 10 µM (D5 dopaminergic receptor): 13% |
| CNC(=O)[C@@]12C[C@@H]1[C@@H](n1cnc3c(NCc4cccc(Cl)c4)nc(C#Cc4ccc(F)cc4)nc31)[C@H](O)[C@@H]2O [Compound 2] |  | 2.13 ± 0.27 | 19 | 0 | 12 | 5 | 56 | 6 | 2 | 0.253 ± 0.057 | 92 | 7 | 0 | 12 | 0 | 19 |  |
| CNC(=O)[C@@]12C[C@@H]1[C@@H](n1cnc3c(NCc4cccc(Cl)c4)nc(C#Cc4ccccc4Cl)nc31)[C@H](O)[C@@H]2O [Compound 3] | 6.48 ± 2.94 | 3.65 ± 1.05 | 26 | 0 | 8 | 6 | 55 | 8 | 33 | 0.344 ± 0.149 | 87 | 16 | 2 | 0 | 0 | 10 |  |
| CNC(=O)[C@@]12C[C@@H]1[C@@H](n1cnc3c(NCc4cccc(Cl)c4)nc(Cl)nc31)[C@H](O)[C@@H]2O [Compound 4] |  | 0.075 ± 0.007 | 34 | 0 | 21 | 29 | 95 | 40 ± 7 | 2 |  | 32 | 3 | 0 | 0 | 14 | 4 | Ki [3]: 7.73 µM |
| CNC(=O)[C@@]12C[C@@H]1[C@@H](n1cnc3c(NC)nc(C#Cc4ccc(F)c(F)c4)nc31)[C@H](O)[C@@H]2O [Compound 5] |  |  |  | 0 | 0 | 10 |  | 0 | 10 |  | 25 | 0 | 9 | 0 | 0 | 6 | inhibition at 10 µM [2]: 4%; inhibition at 10 µM [7]: 11% |
| O[C@@H]1[C@H](O)[C@@H]2C[C@@H]2[C@H]1n1cnc2c(NCc3cccc(Cl)c3)nc(C#Cc3ccc(F)c(F)c3)nc21 [Compound 6] | 5.97 ± 1.53 |  | 6 |  | 0 | 9 | 34 | 0 | 16 | 1.7 | 63 | 13 | 6 | 3 | 7 | 3 |  |
| O[C@@H]1[C@H](O)[C@@H]2C[C@@H]2[C@H]1n1cnc2c(NCc3cccc(Cl)c3)ncnc21 [Compound 7] | 6.34 ± 1.47 | 2.22 ± 0.65 | 7 | 0 | 42 | 28 | 75 | 35 ± 2 | 29 |  | 13 | 15 | 0 | 24 | 15 | 7 | Ki [3]: 3.92 µM |
| Fc1ccc(C#Cc2nc(NCc3cccc(Cl)c3)c3nc[nH]c3n2)cc1F [Compound 8] | 1.09 ± 0.14 | 4 ± 1.92 | 9 | 0 | 63 | 11 | 39 | 0 | 0 |  | 13 | 0 | 0 | 27 | 6 | 9 |  |
| Clc1cccc(CNc2nc(Cl)nc3[nH]cnc23)c1 [Compound 9] | 0.061 ± 0.02 | 1.78 ± 0.35 |  | 8 | 95 | 12 | 55 | 12 | 0 |  | 8 | 26 | 37 | 12 | 9 | 0 | inhibition at 10 µM [7]: 0% |
